Assay: solvent given as SMILES

O=[N+]([O-])c1ccccc1O
Conditions | solvation free energy, 298 K [kcal/mol]
in CC(C)CC(C)(C)C | -6.5
in CCCCCC | -6.48
in CCCCCCC | -6.49
in CCCCCCCC | -6.49
in CCCCCCCCCC | -6.47
in Cc1cccc(C)c1 | -7.73
in O | -4.58

O=C(O)Cc1ccc(O)cc1
Conditions | solvation free energy, 298 K [kcal/mol]
in CCOC(C)=O | -13.6
in O | -13

CC1CCCC1
Conditions | solvation free energy, 298 K [kcal/mol]
in CC1CCS(=O)(=O)C1 | -2.51
in CC#N | -2.8
in CCCCCCCCCC | -3.93
in CCCCCCCO | -3.51
in CCCCCO | -3.51
in CN1CCCC1=O | -2.99
in CN1CCCCC1=O | -3.16
in CN(C)C=O | -3
in CNC=O | -2.67
in COCCO | -2.99
in CS(C)=O | -2.47
in O | 1.6
in O=CN1CCOCC1 | -2.47
in OC1CCCCC1 | -3.44
in OCCOCCO | -1.85
in OCCS | -2.33
in OCc1ccccc1 | -3.01

CC1CCC(C)O1 (configuration not stated)
Conditions | solvation free energy, 298 K [kcal/mol]
in O | -2.92

CC(C)O
Conditions | solvation free energy, 298 K [kcal/mol]
in C1CCOC1 | -4.75
in C1COCCO1 | -4.37
in CC#N | -4.42
in CC(=O)CC(C)=O | -4.41
in CC(=O)N(C)C | -5.29
in CC(C)(C)O | -5.02
in CC(C)CC(C)(C)C | -2.9
in CC(C)CCCC(C)CCCC(C)CCCCC(C)CCCC(C)CCCC(C)C | -2.29
in CC(Cl)(Cl)Cl | -4.07
in CCC(C)=O | -4.54
in CCCC(C)O | -4.85
in CCCCCC | -2.76
in CCCCCCC | -2.71
in CCCCCCCCCCCCCCCC | -2.37
in CCCCCCCCCCO | -4.49
in CCCCCCCCO | -4.61
in CCCCCO | -4.99
in CCCCN(C=O)CCCC | -4.71
in CCCCO | -5.02
in CCCO | -5.07
in CCCOCCC | -3.74
in CCN(CC)C(C)=O | -5.2
in CCNC(C)=O | -5.09
in CCNC=O | -5.03
in CCO | -5.27
in CCOC(=O)c1ccccc1C(=O)OCC | -3.75
in CCOC(C)=O | -4.13
in CCOCCO | -4.87
in CCOP(=O)(OCC)OCC | -4.97
in CN1CCCC1=O | -5.12
in CN1CCN(C)C1=O | -5.1
in CNC(C)=O | -5.12
in CO | -5.53
in COC(C)(C)C | -4.22
in COC(C)=O | -4.46
in Cc1ccc(C)cc1 | -3.39
in Cc1cccc(C)c1 | -3.33
in O | -4.76
in O=CN1CCOCC1 | -4.53
in OCCOCCO | -4.77
in [2H]O[2H] | -4.86

Cc1ccc(Br)cc1
Conditions | solvation free energy, 298 K [kcal/mol]
in O | -1.39

Clc1ccc2c(c1)Oc1ccc(Cl)cc1O2
Conditions | solvation free energy, 298 K [kcal/mol]
in O | -3.67

ClC(Cl)=C(Cl)Cl
Conditions | solvation free energy, 298 K [kcal/mol]
in C1CCCC1 | -5.37
in C1CCOC1 | -5.43
in C1COCCO1 | -5.1
in CCC(C)=O | -4.98
in CCCCCCCCCCCCCCCC | -4.88
in CS(C)=O | -4.27
in ClC(Cl)(Cl)Cl | -5.48
in ClCCCl | -5.05
in O | -0.06

CCC(=O)CC(C)=O
Conditions | solvation free energy, 298 K [kcal/mol]
in O | -4.79

c1ccc2c(c1)ccc1ccccc12
Conditions | solvation free energy, 298 K [kcal/mol]
in C1CCOC1 | -11.5
in C1COCCO1 | -11.3
in CC(=O)N(C)C | -11.4
in CC(C)(C)O | -9.55
in CC(C)=O | -11.3
in CC(C)CC(C)(C)C | -9.75
in CC(C)CC(C)O | -9.7
in CC(C)CCO | -9.73
in CC(C)CO | -9.56
in CC(C)O | -9.64
in CCC(C)(C)O | -9.84
in CCC(C)O | -9.64
in CCCC(C)CO | -9.72
in CCCC(C)O | -9.79
in CCCCC(CC)CO | -9.87
in CCCCCC | -10
in CCCCCCC | -10.1
in CCCCCCCC | -10.1
in CCCCCCCCC=CCCCCCCCC(=O)OCC(COC(=O)CCCCCCCC=CCCCCCCCC)OC(=O)CCCCCCCC=CCCCCCCCC | -10.6
in CCCCCCCCCC | -10.1
in CCCCCCCCO | -10.3
in CCCCCCCO | -10.1
in CCCCCO | -10
in CCCCO | -9.89
in CCCCOC(C)=O | -11
in CCCCOCCCC | -10.5
in CCCO | -9.96
in CCO | -10
in CCOC(C)=O | -11.1
in CN1CCCC1=O | -11.5
in CO | -9.88
in COC(C)(C)C | -10.7
in COC(C)=O | -11.1
in ClC(Cl)(Cl)Cl | -11
in O | -3.8
in O=C1CCCCC1 | -11.4

c1ccc2c(c1)CCC2
Conditions | solvation free energy, 298 K [kcal/mol]
in O | -1.42

C=O
Conditions | solvation free energy, 298 K [kcal/mol]
in O | -2.75

CCOC(=O)CC
Conditions | solvation free energy, 298 K [kcal/mol]
in CCCCCCCC | -4.11
in CCCCCCCCCCCCCCCC | -3.91
in CCCCCCCCO | -4.3
in CCOCCO | -4.58
in CN1CCCC1=O | -4.49
in O | -2.7
in O=CN1CCOCC1 | -4.3
in [2H]O[2H] | -2.8

CCC(O)C(C)(C)C (configuration not stated)
Conditions | solvation free energy, 298 K [kcal/mol]
in CCCCCCCC | -4.93
in CCCCCCCCCC | -4.85

COC(=O)c1ccc(Cl)c([N+](=O)[O-])c1
Conditions | solvation free energy, 298 K [kcal/mol]
in CN(C)C=O | -11.6
in O | -6.89

CCOCCOC(C)=O
Conditions | solvation free energy, 298 K [kcal/mol]
in O | -5.31

Clc1ccc(-c2c(Cl)c(Cl)cc(Cl)c2Cl)cc1Cl
Conditions | solvation free energy, 298 K [kcal/mol]
in O | -4.38

— the CombiSolv-Exp solvation set (Vermeire and Green 2021)
